# Measurements as given in US12502414B2, “Second generation Seneca Valley virus oncolytic therapy: compositions and methods thereof” (SENECA THERAPEUTICS, INC., priority 2019, dated 2025).
# “Also recorded” adds a separate entry of the source.
# How the values were obtained:
# [1] = system: SVV replication in HeLa cells; assay: SVV replication in Tem 8+ HeLa cells, virus yield by plaque assay; assay type: cell-based
# Procedure: FIG. 2A. SVV replication in HeLa cells can be enhanced with staurosporine (SSP). FIG. 2B. Inhibition of SVV replication by IFN-α can be reversed with SSP in Per.C6 cells. TEM 8+ HeLa cells or Per.C6 cells were pretreated with 500 units IFN-α before infection with SVV at MOI 1. 300 nM SSP was added at time 0. Virus yields determined by plaque assay 24 h post infection. Results are representative of three independent experiments.
# FIGS. 3A-3B are series of histogram depicting the effect of Trichostatin A on SVV replication. FIG. 3A. SVV replication in HeLa cells can be enhanced with Trichostatin A. FIG. 3B. Inhibition of SVV replication by IFN-α can be reversed with Trichostatin A in Per.C6 cells. TEM 8+ HeLa cells or Per.C6 cells were pretreated with 500 units IFN-α before infection with SVV at MOI 1. 1 μM Trichostatin A was added at time 0. Virus yields determined by plaque assay 24 h post infection. Results are representative of three independent experiments.
# FIGS. 4A-4B are series of histogram depicting the effect of Torin 2 A on SVV replication. FIG. 4A. SVV replication in HeLa cells can be enhanced with Torin 2 A. FIG. 4B. Inhibition of SVV replication by IFN-α can be reversed with Torin 2 in Per.C6 cells. TEM 8+ HeLa cells or Per.C6 cells were pretreated with 500 units IFN-α before infection with SVV at MOI 1. 2 μM Torin 2 was added at time −30 min. Virus yields determined by plaque assay 24 h post infection. Results are representative of three independent experiments.
# Cells and viruses. Cells were maintained in DMEM supplemented with 10% fetal bovine serum (Per.C6) or 10% bovine serum (HeLa), 2 mM L-glutamine (Invitrogen), and 1% penicillin-streptomycin. Viral stocks were produced by growth in Per.C6 cells as previously described (23).
# Cytokines and Inhibitors. IFN-α and Trichostatin A were purchased from Sigma, Inc. (St. Louis, MO). […] All compounds were dissolved in DMSO.
# Virus infections. Infections were performed in 35 mm dishes. Cells were counted at the time of infection and viral stocks were diluted in PBS+0.01% BSA (Sigma, St. Louis, MO) for infections at the appropriate MOI. One hundred microliters of diluted virus were used to infect each plate at 37° C. for 45 min with rocking. Cells were then washed twice with PBS and covered with 1 mL of appropriate media; samples taken at this time are called 0 time point. Mock infected cells were treated with PBS+0.01% BSA instead of virus. Three independent infections were done.
# Plaque assays. […]
# Removal of acetyl moieties from histones is catalyzed by enzymes known as histone deacetylases (HDACs) and leads to […]. […] Sixteen hours after infection virus yields were determined by plaque assay (FIG. 3A). […]
# [2] = system: SVV replication in Per.C6 cells; assay: SVV replication in Per.C6 cells with or without IFN-α pretreatment, virus yield by plaque assay; assay type: cell-based, human; settings: Per.C6 cells pretreated with 500 units IFN-α
# Procedure: Per.C6 cells were pretreated with 500 units IFN-α before infection with SVV at MOI=1. Virus yields were determined by plaque assay 24 h post infection.
# Plaque assays. Samples for virus titration were produced by harvesting cells and medium, followed by three cycles of freezing and thawing and then by centrifugation at 5000×g for 5 min. All titrations were done on monolayers of Per.C6 cells in 35 mm plates. Ten-fold serial dilutions of virus were made in PBS+0.1 mg/ml BSA (Sigma) and 0.1 mL of each dilution was added per well. Plates were incubated at 37° C. for 45 min with rocking and overlay was then added. A two-overlay system was used. […] Plaque assays were incubated for 72 hrs at 37° C. Cells were then fixed with 10% TCA (Sigma) and stained with 0.1% crystal violet (Sigma) in 20% ethanol.
compound,measurement,setting,value
CC(/C=C/C(=O)NO)=C\[C@@H](C)C(=O)c1ccc(N(C)C)cc1 [Trichostatin A],SVV infection of non-permissive HeLa cells (virus yields by plaque assay),"[1]; HeLa cells grown with Trichostatin A for 24 hours before infection, yields sixteen hours after infection (legend: 1 μM at time 0, 24 h)",more efficient
same,effect on inhibition of SVV replication by IFN-α,"[2]; SVV MOI 1, 1 μM Trichostatin A added at time 0, 24 h post infection",reversed the inhibitory effect of IFN-α on SVV replication
IFN-α,production of infectious SVV (virus yields by plaque assay),"[2]; SVV MOI 1, 24 h post infection",significantly reduced production of infectious SVV; also recorded: reduced virus yields
Nc1ccc(-c2ccc3ncc4ccc(=O)n(-c5cccc(C(F)(F)F)c5)c4c3c2)cn1 [Torin 2],enhanced SVV replication by Torin 2 in the presence of IFN-α,"[1]; HeLa cells pretreated with 500 units IFN-α, 2 μM Torin 2 at −30 min, SVV MOI 1, 24 h post infection",not reduced in the presence of IFN-α
same,SVV yields (plaque assay),"[1]; semi-permissive HeLa cells, SVV MOI 1, 2 μM Torin 2 added at time −30 min, 24 h post infection",substantially increased SVV yields
same,SVV replication in the presence of IFN-α,"[2]; 2 μM Torin 2 at −30 min, SVV MOI 1, 24 h post infection",promoted SVV replication
CN[C@@H]1C[C@H]2O[C@@](C)([C@@H]1OC)n1c3ccccc3c3c4c(c5c6ccccc6n2c5c31)C(=O)NC4 [staurosporine],production of infectious SVV (virus yields by plaque assay),"[1]; Tem 8+ HeLa cells, SVV MOI 1, 300 nM SSP added at time 0, 24 h post infection",increased production of infectious SVV
